Data reported in ChEMBL document CHEMBL4831506, “Discovery of novel trimethoxyphenylbenzo[d]oxazoles as dual tubulin/PDE4 inhibitors capable of inducing apoptosis at G2/M phase arrest in glioma and lung cancer cells” (Eur J Med Chem, 2021).
Activity calls are given as the source filed them. The calls are words filed in the database; no cut-off is given here.

Tests used:
U-251 [1] = experiment: Cell cycle arrest in human U-251 cells assessed as G0/G1 phase at 500 nM measured after 24 hrs by propidium iodide staining based flow cytometry analysis (reference value: 67.34%); format: functional
A549 [2] = experiment: Induction of apoptosis in human A549 cells assessed as increase in necrotic cells at 200 nM measured after 24 hrs by PI/FITC analysis (reference value: 0.365%); format: functional
Sus scrofa = organism: Sus scrofa; experiment: Inhibition of pig brain tubulin polymerization at 10 uM by spectrometric method relative to control; format: tissue-based
A549 [3] = experiment: Cell cycle arrest in human A549 cells assessed as G2/M phase at 200 nM measured after 24 hrs by propidium iodide staining based flow cytometry analysis (reference value: 6.08%); format: functional
U-251 [4] = experiment: Induction of apoptosis in human U-251 cells assessed as increase in early apoptotic cells at 1000 nM measured after 24 hrs by PI/FITC analysis (reference value: 1.12%); format: functional
U-251 [5] = experiment: Cell cycle arrest in human U-251 cells assessed as G0/G1 phase at 1000 nM measured after 24 hrs by propidium iodide staining based flow cytometry analysis (reference value: 67.34%); format: functional
A549 [6] = experiment: Cell cycle arrest in human A549 cells assessed as increase in cyclin B1 expression by Western blot analysis; format: functional, cell-based; conditions: dose 50-500 nM
A549 [7] = experiment: Cell cycle arrest in human A549 cells assessed as decrease in cdc25C expression by Western blot analysis; format: functional, cell-based; conditions: dose 50-500 nM
A549 [8] = experiment: Induction of apoptosis in human A549 cells assessed as increase in early apoptotic cells at 200 nM measured after 24 hrs by PI/FITC analysis (reference value: 0.955%); format: functional
U-251 [9] = experiment: Induction of apoptosis in human U-251 cells assessed as increase in late apoptotic cells at 1000 nM measured after 24 hrs by PI/FITC analysis (reference value: 0.311%); format: functional
U-251 [10] = experiment: Cell cycle arrest in human U-251 cells assessed as G2/M phase at 1000 nM measured after 24 hrs by propidium iodide based flow cytometry analysis (reference value: 14.43%); format: functional
U-251 [11] = experiment: Induction of apoptosis in human U-251 cells assessed as increase in viable cells at 500 nM measured after 24 hrs by PI/FITC analysis (reference value: 98.3%); format: functional
A549 [12] = experiment: Cell cycle arrest in human A549 cells assessed as S phase at 200 nM measured after 24 hrs by propidium iodide staining based flow cytometry analysis (reference value: 14.78%); format: functional
NCI-H460 = experiment: Antiproliferative activity against human NCI-H460 cells after 48 hrs by MTT assay; format: functional, cell-based; conditions: NCI-H460, 48 h
A549 [13] = experiment: Induction of apoptosis in human A549 cells assessed as increase in viable cells at 500 nM measured after 24 hrs by PI/FITC analysis (reference value: 98.4%); format: functional
A549 [14] = experiment: Induction of apoptosis in human A549 cells assessed as increase in late apoptotic cells at 200 nM measured after 24 hrs by PI/FITC analysis (reference value: 0.955%); format: functional
A549 [15] = experiment: Induction of apoptosis in human A549 cells assessed as increase in late apoptotic cells at 50 nM measured after 24 hrs by PI/FITC analysis (reference value: 0.955%); format: functional
U-251 [16] = experiment: Cell cycle arrest in human U-251 cells assessed as G2/M phase at 200 nM measured after 24 hrs by propidium iodide staining based flow cytometry analysis (reference value: 14.43%); format: functional
A549 [17] = experiment: Induction of apoptosis in human A549 cells assessed as increase in early apoptotic cells at 50 nM measured after 24 hrs by PI/FITC analysis (reference value: 0.955%); format: functional
U-251 [18] = experiment: Induction of apoptosis in human U-251 cells assessed as increase in late apoptotic cells at 200 nM measured after 24 hrs by PI/FITC analysis (reference value: 0.311%); format: functional
U-251 [19] = experiment: Induction of apoptosis in human U-251 cells assessed as increase in viable cells at 1000 nM measured after 24 hrs by PI/FITC analysis (reference value: 98.3%); format: functional
U-251 [20] = experiment: Induction of apoptosis in human U-251 cells assessed as increase in late apoptotic cells at 500 nM measured after 24 hrs by PI/FITC analysis (reference value: 0.311%); format: functional
U-251 [21] = experiment: Cell cycle arrest in human U-251 cells assessed as G0/G1 phase at 200 nM measured after 24 hrs by propidium iodide staining based flow cytometry analysis (reference value: 67.34%); format: functional
U-251 [22] = experiment: Induction of apoptosis in human U-251 cells assessed as increase in early apoptotic cells at 200 nM measured after 24 hrs by PI/FITC analysis (reference value: 1.12%); format: functional
A549 [23] = experiment: Induction of apoptosis in human A549 cells assessed as increase in necrotic cells at 500 nM measured after 24 hrs by PI/FITC analysis (reference value: 0.365%); format: functional
U-251 [24] = experiment: Induction of apoptosis in human U-251 cells assessed as increase in apoptotic cells at 500 nM measured after 24 hrs by PI/FITC analysis (reference value: 2.39%); format: functional
A549 [25] = experiment: Induction of apoptosis in human A549 cells assessed as increase in late apoptotic cells at 500 nM measured after 24 hrs by PI/FITC analysis (reference value: 0.955%); format: functional
U-251 [26] = experiment: Induction of apoptosis in human U-251 cells assessed as increase in early apoptotic cells at 500 nM measured after 24 hrs by PI/FITC analysis (reference value: 1.12%); format: functional
MCF7 = experiment: Antiproliferative activity against human MCF7 cells after 48 hrs by MTT assay; format: functional, cell-based; conditions: MCF7, 48 h
A549 [27] = experiment: Induction of apoptosis in human A549 cells assessed as increase in apoptotic cells at 500 nM measured after 24 hrs by PI/FITC analysis (reference value: 1.437%); format: functional
Tubulin (Homo sapiens) = Tubulin (Homo sapiens) (UniProt P68371+Q9H4B7+P0DPH7+P68366+Q13509+Q71U36+P04350+Q3ZCM7+P07437+P68363+Q9BQE3+Q6PEY2+Q13885+Q9BVA1+Q9BUF5); experiment: Inhibition of tubulin assembly in human A549 cells measured after 24 hrs; format: cell-based
A549 [28] = experiment: Cell cycle arrest in human A549 cells assessed as G0/G1 phase at 500 nM incubated for 24 hrs by propidium iodide staining based flow cytometry analysis (reference value: 79.14%); format: functional
A549 [29] = experiment: Induction of apoptosis in human A549 cells assessed as increase in viable cells at 50 nM measured after 24 hrs by PI/FITC analysis (reference value: 98.4%); format: functional
A549 [30] = experiment: Induction of apoptosis in human A549 cells assessed as increase in early apoptotic cells at 500 nM measured after 24 hrs by PI/FITC analysis (reference value: 0.955%); format: functional
U-251 [31] = experiment: Induction of apoptosis in human U-251 cells assessed as increase in viable cells at 200 nM measured after 24 hrs by PI/FITC analysis (reference value: 98.3%); format: functional
[32] = target: 3',5'-cyclic-AMP phosphodiesterase 4C (Homo sapiens, UniProt Q08493); experiment: Inhibition of PDE4 CAT (unknown origin)
3',5'-cyclic-AMP phosphodiesterase 4C, sequence (Q08493 whole entry): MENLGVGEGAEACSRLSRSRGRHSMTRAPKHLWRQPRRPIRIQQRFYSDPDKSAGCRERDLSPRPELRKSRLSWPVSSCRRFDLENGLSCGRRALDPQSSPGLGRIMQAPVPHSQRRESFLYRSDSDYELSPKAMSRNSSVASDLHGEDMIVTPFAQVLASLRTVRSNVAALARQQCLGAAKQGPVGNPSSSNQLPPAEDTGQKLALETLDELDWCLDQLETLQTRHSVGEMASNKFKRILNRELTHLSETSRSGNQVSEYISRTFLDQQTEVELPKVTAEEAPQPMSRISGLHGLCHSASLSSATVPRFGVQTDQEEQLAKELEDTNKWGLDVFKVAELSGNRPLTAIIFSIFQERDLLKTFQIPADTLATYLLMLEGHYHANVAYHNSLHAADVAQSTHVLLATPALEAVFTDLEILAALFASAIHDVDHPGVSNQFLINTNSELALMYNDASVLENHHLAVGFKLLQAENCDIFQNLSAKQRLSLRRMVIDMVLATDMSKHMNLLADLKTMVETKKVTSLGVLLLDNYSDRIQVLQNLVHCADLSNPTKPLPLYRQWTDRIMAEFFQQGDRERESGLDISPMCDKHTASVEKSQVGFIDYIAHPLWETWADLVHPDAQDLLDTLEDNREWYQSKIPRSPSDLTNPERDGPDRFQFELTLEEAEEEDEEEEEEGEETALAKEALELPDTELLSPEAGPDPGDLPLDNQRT

## COc1cc(-c2cccc3nc(-c4ccc5cc[nH]c5c4)oc23)cc(OC)c1OC
U-251 [1]
  Activity: 34.64%
A549 [2]
  Activity: 1.61%
Sus scrofa
  inhibition: 86%
A549 [3]
  Activity: 61.33%
U-251 [4]
  Activity: 5.18%
U-251 [5]
  Activity: 13.54%
A549 [6]
  Activity: Dose-Dependent Effect
A549 [7]
  Activity: Dose-Dependent Effect
A549 [8]
  Activity: 9.7%
U-251 [9]
  Activity: 15.8%
U-251 [10]
  Activity: 71.69%
U-251 [11]
  Activity: 83.1%
A549 [12]
  Activity: 23.43%
NCI-H460
  IC50: 0.024 µM
A549 [13]
  Activity: 70.7%
A549 [14]
  Activity: 0.85%
A549 [15]
  Activity: 7.23%
U-251 [16]
  Activity: 37.97%
A549 [17]
  Activity: 5.32%
U-251 [18]
  Activity: 6.95%
U-251 [19]
  Activity: 77.4%
U-251 [20]
  Activity: 9.13%
U-251 [21]
  Activity: 43.71%
U-251 [22]
  Activity: 3.09%
A549 [23]
  Activity: 2.84%
U-251 [24]
  Activity: 20.98%
A549 [25]
  Activity: 15.4%
U-251 [26]
  Activity: 4.61%
MCF7
  IC50: > 25 µM
A549 [27]
  Activity: 26.5%
Tubulin (Homo sapiens)
  inhibition: Active
A549 [28]
  Activity: 3.89%
A549 [29]
  Activity: 86.9%
A549 [30]
  Activity: 11.1%
U-251 [31]
  Activity: 98%
[32]
  IC50: 1.25 µM
